Experimental data taken from patent US20090203577A1 (EXELIXIS, INC., priority 2005, published 2009).
Values after ≈ are worked out from the molar mass of the structure shown. Like-named read-outs stand apart in the source and are kept apart here.

Key:
[1] = molecular target: T1, human farnesoid X receptor (Homo sapiens, UniProt Q96RI1); experiment: FXR in vitro assays (farnesoid X receptor/ECREx7 co-transfection assay, TR-FRET assay), Table I; type: cell-based; conditions: for Emax: read-out: % Efficacy
T1 construct: CMX-farnesoid X receptor (full length human farnesoid X receptor); expressed in transfected cells; host or cells: CV-1 African Green Monkey Kidney cells
T1 sequence (Q96RI1 1-472 isoform Q96RI1-2): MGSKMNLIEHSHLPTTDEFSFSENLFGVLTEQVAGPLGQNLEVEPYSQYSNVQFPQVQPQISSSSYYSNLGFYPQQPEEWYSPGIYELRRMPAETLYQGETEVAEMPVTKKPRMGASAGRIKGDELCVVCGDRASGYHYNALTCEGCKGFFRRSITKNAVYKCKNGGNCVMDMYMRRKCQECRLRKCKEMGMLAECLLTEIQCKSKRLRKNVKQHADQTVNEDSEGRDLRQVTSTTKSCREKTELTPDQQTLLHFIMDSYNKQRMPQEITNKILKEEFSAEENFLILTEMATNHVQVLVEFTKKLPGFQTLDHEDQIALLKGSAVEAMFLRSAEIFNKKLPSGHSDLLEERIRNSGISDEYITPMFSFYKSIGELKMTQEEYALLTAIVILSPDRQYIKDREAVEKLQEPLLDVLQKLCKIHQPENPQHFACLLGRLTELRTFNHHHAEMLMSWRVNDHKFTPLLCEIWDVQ
T1 sequence (P19793 1-462 partner): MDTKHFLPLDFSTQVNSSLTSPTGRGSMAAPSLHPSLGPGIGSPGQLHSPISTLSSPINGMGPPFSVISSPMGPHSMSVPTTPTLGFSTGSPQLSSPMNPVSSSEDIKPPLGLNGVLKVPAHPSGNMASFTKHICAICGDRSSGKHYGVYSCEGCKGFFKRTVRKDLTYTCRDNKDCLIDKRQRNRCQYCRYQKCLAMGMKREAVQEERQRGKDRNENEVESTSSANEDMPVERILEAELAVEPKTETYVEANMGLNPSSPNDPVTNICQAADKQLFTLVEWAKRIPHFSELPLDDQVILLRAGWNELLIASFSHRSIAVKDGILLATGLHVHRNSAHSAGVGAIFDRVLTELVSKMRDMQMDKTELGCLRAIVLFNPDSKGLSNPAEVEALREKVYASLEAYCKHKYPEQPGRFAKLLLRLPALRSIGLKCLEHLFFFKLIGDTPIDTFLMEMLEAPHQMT
Method in brief: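 CV-1 monkey kidney cells transfected for an FXR/ECREx7 luciferase co-transfection reporter; luciferase read 18-20 h later in lysates. 8-point dose-response at ½-log spacing, 4 wells per point; EC50/IC50 from four-parameter Hill fit, averaged over at least 3 independent experiments.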

[2] = physchem; conditions: pH 7.4, aqueous buffer, kinetic from dmso stock
Procedure: The kinetic solubility of test compounds in buffer was evaluated using a 96 well filtration plate format. A 500 μM assay solution in PBS, pH7.4 (or other assay buffer, as needed) was generated form a DMSO stock solution (up to 10 mM). Samples were transferred to a 96 Millipore MultiScreen HTS 96-well Filter plate (Cat# MSSLBPC10) mixed by shaking for 1.5 hours and processed by filtration prior to quantitation by HPLC-UV. Amiodarone and testosterone were used as reference controls.

[3] = agonist activity, one or more of the in vitro assays, read-out: EC50

SMILES: CC(C)OC(=O)C1=CN(C(=O)N2CCN(C(C)C)CC2)CC(C)(C)c2c1[nH]c1ccccc21 [Example 30, 1-methylethyl 1,1-dimethyl-3-{[4-(1-methylethyl)piperazin-1-yl)carbonyl}-1,2,3,6-tetrahydroazepino[4,5-b]indole-5-carboxylate]
- EC50 [1, 3]: 100 to 1000 nM
- Emax [1]: > 100%
- solubility kinetic at 1.5 h [2]: > 10 µM

SMILES: CC(C)OC(=O)C1=CN(C(=O)c2cccc(O)c2)CC(C)(C)c2c1[nH]c1ccccc21 [Example 139, 1-methylethyl 3-[(3-hydroxyphenyl)carbonyl]-1,1-dimethyl-1,2,3,6-tetrahydroazepino[4,5-b]indole-5-carboxylate]
- EC50 [1, 3]: 10 to 100 nM
- Emax [1]: > 100%
- solubility kinetic at 1.5 h [2]: 1 to 10 µM (≈ 0.418 to 4.18 µg/mL)

SMILES: CC(C)OC(=O)C1=CN(C(=O)c2ccccc2Br)CC(C)(C)c2c1[nH]c1ccccc21 [Example 67, 1-methylethyl 3-[(2-bromophenyl)carbonyl]-1,1-dimethyl-1,2,3,6-tetrahydroazepino[4,5-b]indole-5-carboxylate]
- EC50 [1, 3]: 10 to 100 nM
- Emax [1]: > 100%
- solubility kinetic at 1.5 h [2]: 1 to 10 µM (≈ 0.481 to 4.81 µg/mL)

SMILES: CC(C)OC(=O)C1=CN(C(=O)N2CCC[C@@H](CN(C)C)C2)CC(C)(C)c2c1[nH]c1ccccc21 [Example 50, 1-methylethyl 3-({(3S)-3-[(dimethylamino)methyl]piperidin-1-yl}carbonyl)-1,1-dimethyl-1,2,3,6-tetrahydroazepino[4,5-b]indole-5-carboxylate]
- EC50 [1, 3]: 1000 to 10000 nM
- Emax [1]: 60 to 80%
- solubility kinetic at 1.5 h [2]: > 10 µM

SMILES: CCN1CCN(C(=O)N2C=C(C(=O)OC(C)C)c3[nH]c4ccccc4c3C(C)(C)C2)CC1 [Example 25, 1-methylethyl 3-[(4-ethylpiperazin-1-yl)carbonyl]-1,1-dimethyl-1,2,3,6-tetrahydroazepino[4,5-b]indole-5-carboxylate]
- EC50 [1, 3]: 10 to 100 nM
- Emax [1]: > 100%
- solubility kinetic at 1.5 h [2]: > 10 µM

SMILES: CC(C)OC(=O)C1=CN(C(=O)N2CCC[C@H](CN3CCOCC3)C2)CC(C)(C)c2c1[nH]c1ccccc21 [Example 57, 1-methylethyl 1,1-dimethyl-3-{[(3R)-3-(morpholin-4-ylmethyl)piperidin-1-yl]carbonyl}-1,2,3,6-tetrahydroazepino [4,5-b]indole-5-carboxylate]
- EC50 [1, 3]: 1000 to 10000 nM
- Emax [1]: > 100%
- solubility kinetic at 1.5 h [2]: > 10 µM

SMILES: CC(=O)N1CCN(Cc2cccc(C(=O)N3C=C(C(=O)OC(C)C)c4[nH]c5ccccc5c4C(C)(C)C3)c2)CC1 [Example 146, 1-methylethyl 3-({3-[(4-acetylpiperazin-1-yl)methyl]phenyl}carbonyl)-1,1-dimethyl-1,2,3,6-tetrahydroazepino[4,5-b]indole-5-carboxylate]
- EC50 [1, 3]: 100 to 1000 nM
- Emax [1]: > 100%
- solubility kinetic at 1.5 h [2]: 1 to 10 µM (≈ 0.543 to 5.43 µg/mL)

SMILES: CC(C)OC(=O)C1=CN(C(=O)c2ccc(C(F)(F)F)cc2F)CC(C)(C)c2c1[nH]c1ccccc21 [Example 131, 1-methylethyl 3-{[2-fluoro-4-(trifluoromethyl)phenyl]car-bonyl}-1,1-dimethyl-1,2,3,6-tetrahydroazepino[4,5-b]indole-5-carboxylate]
- EC50 [1, 3]: 100 to 1000 nM
- Emax [1]: > 100%
- solubility kinetic at 1.5 h [2]: > 10 µM

SMILES: CCCNC(=O)N1C=C(C(=O)OC(C)C)c2[nH]c3ccccc3c2C(C)(C)C1 [Example 23, 1-methylethyl 1,1-dimethyl-3-[(propylamino)carbonyl]-1,2,3,6-tetrahydroazepino[4,5-b]indole-5-carboxylate]
- EC50 [1, 3]: 100 to 1000 nM
- Emax [1]: > 100%
- solubility kinetic at 1.5 h [2]: 1 to 10 µM (≈ 0.383 to 3.83 µg/mL)

SMILES: CC(C)OC(=O)C1=CN(C(=O)N2CCCC(CN3CCOCC3)C2)CC(C)(C)c2c1[nH]c1ccccc21 (stereo not drawn) [Example 53, 1-methylethyl 1,1-dimethyl-3{[3-(morpholin-4-ylmethyl)piperidin-1-yl]carbonyl}-1,2,3,6-tetrahydroazepino [4,5-b]indole-5-carboxylate]
- EC50 [1, 3]: 100 to 1000 nM
- Emax [1]: > 100%
- solubility kinetic at 1.5 h [2]: > 10 µM

SMILES: CC(C)OC(=O)C1=CN(C(=O)N2CCOCC2)CC(C)(C)c2c1[nH]c1ccccc21 [Example 47, 1-methylethyl 1,1-dimethyl-3-(morpholin-4-ylcarbonyl)-1,2,3,6-tetrahydrazepino[4,5-b]indole-5-carboxylate]
- EC50 [1, 3]: 10 to 100 nM
- Emax [1]: > 100%
- solubility kinetic at 1.5 h [2]: > 10 µM

SMILES: CC(C)OC(=O)C1=CN(C(=O)C2CCN(C)CC2)CC(C)(C)c2c1[nH]c1ccccc21 [Example 6, 1-methylethyl 1,1-dimethyl-3-[(1-methylpiperidin-4-yl)carbonyl]-1,2,3,6-tetrahydroazepino[4,5-b]indole-5-carboxylate]
- EC50 [1, 3]: 1000 to 10000 nM
- Emax [1]: > 100%
- solubility kinetic at 1.5 h [2]: 0.1 to 1 µM (≈ 0.0424 to 0.424 µg/mL)

SMILES: CC(C)NC(=O)C1CN(C(=O)c2ccc(F)c(F)c2)CC(C)(C)c2c1[nH]c1ccccc21 (stereo not drawn) [Example 90, 3-[(3,4-difluorophenyl)carbonyl]-1,1-dimethyl-N-(1-methylethyl)-1,2,3,4,5,6-hexahydroazepino[4,5-b]indole-5-carboxamide]
- EC50 [1, 3]: 1000 to 10000 nM
- Emax [1]: > 100%
- solubility kinetic at 1.5 h [2]: > 10 µM

SMILES: CC(C)OC(=O)C1=CN(C(=O)N2CCN(C)CC2)CC(C)(C)c2c1[nH]c1cc(F)ccc21 [Example 35, 1-methylethyl 8-fluoro-1,1-dimethyl-3-[(4-methylpiperazin-1-yl)carbonyl]-1,2,3,6-tetrahydroazepino[4,5-b]indole-5-carboxylate]
- EC50 [1, 3]: 10 to 100 nM
- Emax [1]: > 100%
- solubility kinetic at 1.5 h [2]: > 10 µM

SMILES: CCN1CCN(C(=O)N2C=C(C(=O)OC(C)C)c3[nH]c4cc(F)ccc4c3C(C)(C)C2)CC1 [Example 36, 1-methylethyl 3-[(4-ethylpiperazin-1-yl)carbonyl]-8-fluoro-1,1-dimethyl-1,2,3,6-tetrahydroazepino[4,5-b]indole-5-carboxylate]
- EC50 [1, 3]: 10 to 100 nM
- Emax [1]: > 100%
- solubility kinetic at 1.5 h [2]: > 10 µM

SMILES: CC1(C)CN(C(=O)c2ccc(F)c(F)c2)C=C(C(=O)OCCO)c2[nH]c3ccccc3c21 [Example 196, 2-hydroxyethyl 3-[(3,4-difluorophenyl)carbonyl]-1,1-dimethyl-1,2,3,6-tetrahydroazepino[4,5-b]indole-5-carboxylate]
- EC50 [1, 3]: 10 to 100 nM
- Emax [1]: > 100%
- solubility kinetic at 1.5 h [2]: 1 to 10 µM (≈ 0.44 to 4.4 µg/mL)

SMILES: CC(C)OC(=O)C1=CN(C(=O)c2ccc(F)c(F)c2)CC(C)(C)c2c1[nH]c1cc(OC(=O)NCCN(C)C)ccc21 [Example 93, 1-methylethyl 3-[(3,4-difluorophenyl)carbonyl]-8-[({[2-(dimethylamino)ethyl]amino}carbonyl)oxy]-1,1-dimethyl-1,2,3,6-tetrahydroazepino[4,5-b]indole-5-carboxylate]
- EC50 [1]: 10 to 100 nM
- Emax [1]: > 100%
- solubility kinetic at 1.5 h [2]: > 10 µM

SMILES: CCN(CC)C1CCN(C(=O)N2C=C(C(=O)OC(C)C)c3[nH]c4ccccc4c3C(C)(C)C2)CC1 [Example 33, 1-methylethyl 3-{[4-0 (diethylamino)piperidin-1-yl]carbonyl}-1,1-dimethyl-1,2,3,6-tetrahydroazepino[4,5-b]indole-5-carboxylate]
- EC50 [1, 3]: 1000 to 10000 nM
- Emax [1]: 60 to 80%
- solubility kinetic at 1.5 h [2]: > 10 µM

SMILES: CC(C)OC(=O)C1=CN(C(=O)c2ccc3c(c2)OCO3)CC(C)(C)c2c1[nH]c1ccccc21 [Example 80, 1-methylethyl 3-(1,3-benzodioxol-5-ylcarbonyl)-1,1-dimethyl-1,2,3,6-tetrahydroazepino[4,5-b]indole-5-carboxylate]
- EC50 [1, 3]: 10 to 100 nM
- Emax [1]: > 100%
- solubility kinetic at 1.5 h [2]: 1 to 10 µM (≈ 0.447 to 4.47 µg/mL)

SMILES: CC(C)OC(=O)C1=CN(C(=O)N2CCCC(CN(C)C)C2)CC(C)(C)c2c1[nH]c1ccccc21 (stereo not drawn) [Example 48, 1-methylethyl 3-({3-[(dimethylamino)methyl]piperidin-1-yl}carbonyl)-1,1-dimethyl-1,2,3,6-tetrahydroazepino[4,5-b]indole-5-carboxylate]
- EC50 [1, 3]: 1000 to 10000 nM
- Emax [1]: > 100%
- solubility kinetic at 1.5 h [2]: > 10 µM

SMILES: CC(C)OC(=O)C1=CN(C(=O)c2ccccc2C(F)(F)F)CC(C)(C)c2c1[nH]c1ccccc21 [Example 64, 1-methylethyl 1,1-dimethyl-3-{[2-(trifluoromethyl)phenyl]-carbonyl}-1,2,3,6-tetrahydroazepino[4,5-b]indole-5-carboxylate]
- EC50 [1, 3]: 10 to 100 nM
- Emax [1]: > 100%
- solubility kinetic at 1.5 h [2]: 1 to 10 µM (≈ 0.47 to 4.7 µg/mL)
